How the values were obtained:
Type in all cases: in vivo
[1] = system: winter barley (Hordeum vulgare); assay: Test B postemergence plant response; settings: Postemergence
Procedure, shortened: (§1)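 Plants grown in peat/vermiculite medium were sprayed postemergence at 2–18 cm height (1- to 4-leaf stage). After 13–15 days in the greenhouse, response was rated visually against untreated controls on a 0–100 scale (0 no effect, 100 complete control).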

[2] = system: windgrass (Apera spica-venti); assay: Test B postemergence plant response; settings: Postemergence
Procedure, shortened: as §1

[3] = system: canarygrass (Phalaris minor); assay: Test B postemergence plant response; settings: Postemergence
Procedure, shortened: as §1

[4] = system: chickweed (Stellaria media); assay: Test B postemergence plant response; settings: Postemergence
Procedure, shortened: as §1

[5] = system: pigweed (Amaranthus retroflexus); assay: Test A pre-/postemergence plant response; settings: for Pigweed plant response rating: visual injury, 0 to 100 scale (0 no effect, 100 complete control), approx. ten days
Procedure, shortened: (§2)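 Visual injury rating on a 0–100 scale (0 = no effect, 100 = complete control) was made versus untreated controls after about ten days in the greenhouse. Compounds, formulated in a non-phytotoxic solvent mix containing surfactant, were sprayed preemergence onto loam/sand soil and postemergence onto one- to two-leaf plants.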

[6] = system: giant foxtail (Setaria faberii); assay: Test A pre-/postemergence plant response; settings: for Foxtail, Giant plant response rating: visual injury, 0 to 100 scale (0 no effect, 100 complete control), approx. ten days
Procedure, shortened: as §2

corn (Zea mays) = assay: Test A pre-/postemergence plant response; settings: for Corn plant response rating: visual injury, 0 to 100 scale (0 no effect, 100 complete control), approx. ten days
Procedure, shortened: as §2

[7] = system: velvetleaf (Abutilon theophrasti); assay: Test A pre-/postemergence plant response; settings: for Velvetleaf plant response rating: visual injury, 0 to 100 scale (0 no effect, 100 complete control), approx. ten days
Procedure, shortened: as §2

[8] = system: large crabgrass (Digitaria sanguinalis); assay: Test A pre-/postemergence plant response; settings: for Crabgrass, Large plant response rating: visual injury, 0 to 100 scale (0 no effect, 100 complete control), approx. ten days
Procedure, shortened: as §2

[9] = system: morningglory (Ipomoea spp.); assay: Test A pre-/postemergence plant response; settings: for Morningglory plant response rating: visual injury, 0 to 100 scale (0 no effect, 100 complete control), approx. ten days
Procedure, shortened: as §2

[10] = system: barnyardgrass (Echinochloa crus-galli); assay: Test A pre-/postemergence plant response; settings: for Barnyardgrass plant response rating: visual injury, 0 to 100 scale (0 no effect, 100 complete control), approx. ten days
Procedure, shortened: as §2

[11] = system: wheat (Triticum aestivum); assay: Test A pre-/postemergence plant response; settings: for Wheat plant response rating: visual injury, 0 to 100 scale (0 no effect, 100 complete control), approx. ten days
Procedure, shortened: as §2

[12] = 31 g ai/ha, 0 to 100 scale (0 no effect, 100 complete control)
[13] = 62 g ai/ha, scale 0 to 100 (0 no effect, 100 complete control)
[14] = 125 g ai/ha, scale 0 to 100 (0 no effect, 100 complete control)
[15] = 250 g ai/ha, scale 0 to 100 (0 no effect, 100 complete control), 13 to 15 days
[16] = Postemergence, 125 g ai/ha, 0 to 100 scale where 0 is no effect and 100 is complete control
[17] = Preemergence, 125 g ai/ha, 0 to 100 scale, 0 = no effect, 100 = complete control
[18] = Preemergence, 500 g ai/ha, 0 to 100 scale, 0 = no effect, 100 = complete control

COCCn1c(-c2cccc(C)c2)ncc(C(=O)C2=C(O)C3CCC(C3)C2=O)c1=O (stereo not drawn) [Compound 233]
Plant response rating, Barley [1, 12]: 0
Plant response rating, Barley [1, 13]: 0
Plant response rating, Barley [1, 14]: 10
Plant response rating, Barley [1, 15]: 10
Plant response rating, Windgrass [2, 12]: 50
Plant response rating, Windgrass [2, 13]: 55
Plant response rating, Windgrass [2, 15]: 60
Plant response rating, Canarygrass [3, 12]: 0
Plant response rating, Canarygrass [3, 13]: 5
Plant response rating, Canarygrass [3, 14]: 10
Plant response rating, Canarygrass [3, 15]: 20
Plant response rating, Chickweed [4, 12]: 90
Plant response rating, Chickweed [4, 13]: 95
Plant response rating, Chickweed [4, 14]: 100
Plant response rating, Chickweed [4, 15]: 100
Plant response rating, Pigweed [5, 16]: 100
Pigweed plant response rating ([5]; Postemergence, 500 g ai/ha): 100
Plant response rating, Pigweed [5, 17]: 70
Plant response rating, Pigweed [5, 18]: 100
Plant response rating, Foxtail, Giant [6, 16]: 90
Foxtail, Giant plant response rating ([6]; Postemergence, 500 g ai/ha): 90
Plant response rating, Foxtail, Giant [6, 17]: 20
Plant response rating, Foxtail, Giant [6, 18]: 80
Plant response rating, Corn (corn (Zea mays); [16]): 60
Corn plant response rating (corn (Zea mays); Postemergence, 500 g ai/ha): 80
Plant response rating, Corn (corn (Zea mays); [17]): 0
Plant response rating, Corn (corn (Zea mays); [18]): 0
Plant response rating, Velvetleaf [7, 16]: 100
Velvetleaf plant response rating ([7]; Postemergence, 500 g ai/ha): 100
Plant response rating, Velvetleaf [7, 17]: 60
Plant response rating, Velvetleaf [7, 18]: 80
Plant response rating, Crabgrass, Large [8, 16]: 90
Crabgrass, Large plant response rating ([8]; Postemergence, 500 g ai/ha): 90
Plant response rating, Crabgrass, Large [8, 17]: 40
Plant response rating, Crabgrass, Large [8, 18]: 100
Plant response rating, Morningglory [9, 16]: 100
Morningglory plant response rating ([9]; Postemergence, 500 g ai/ha): 100
Plant response rating, Morningglory [9, 17]: 50
Plant response rating, Morningglory [9, 18]: 90
Plant response rating, Barnyardgrass [10, 16]: 90
Barnyardgrass plant response rating ([10]; Postemergence, 500 g ai/ha): 90
Plant response rating, Barnyardgrass [10, 17]: 30
Plant response rating, Barnyardgrass [10, 18]: 100
Plant response rating, Wheat [11, 16]: 20
Wheat plant response rating ([11]; Postemergence, 500 g ai/ha): 60
Plant response rating, Wheat [11, 17]: 0
Plant response rating, Wheat [11, 18]: 40

COCCn1c(-c2cccc(F)c2)ncc(C(=O)C2=C(O)C3CCC(C3)C2=O)c1=O (stereo not drawn) [Compound 235]
Plant response rating, Barley [1, 12]: 0
Plant response rating, Barley [1, 13]: 30
Plant response rating, Barley [1, 14]: 40
Plant response rating, Windgrass [2, 12]: 85
Plant response rating, Windgrass [2, 13]: 95
Plant response rating, Windgrass [2, 15]: 98
Plant response rating, Canarygrass [3, 12]: 20
Plant response rating, Canarygrass [3, 13]: 30
Plant response rating, Canarygrass [3, 14]: 30
Plant response rating, Canarygrass [3, 15]: 30
Plant response rating, Chickweed [4, 12]: 98
Plant response rating, Chickweed [4, 13]: 100
Plant response rating, Chickweed [4, 14]: 100
Plant response rating, Chickweed [4, 15]: 100
Plant response rating, Pigweed [5, 16]: 100
Pigweed plant response rating ([5]; Postemergence, 500 g ai/ha): 100
Plant response rating, Pigweed [5, 17]: 90
Plant response rating, Pigweed [5, 18]: 90
Plant response rating, Foxtail, Giant [6, 16]: 90
Foxtail, Giant plant response rating ([6]; Postemergence, 500 g ai/ha): 100
Plant response rating, Foxtail, Giant [6, 17]: 70
Plant response rating, Foxtail, Giant [6, 18]: 90
Plant response rating, Corn (corn (Zea mays); [16]): 80
Corn plant response rating (corn (Zea mays); Postemergence, 500 g ai/ha): 90
Plant response rating, Corn (corn (Zea mays); [17]): 20
Plant response rating, Corn (corn (Zea mays); [18]): 70
Plant response rating, Velvetleaf [7, 16]: 100
Velvetleaf plant response rating ([7]; Postemergence, 500 g ai/ha): 100
Plant response rating, Velvetleaf [7, 17]: 100
Plant response rating, Velvetleaf [7, 18]: 100
Plant response rating, Crabgrass, Large [8, 16]: 100
Crabgrass, Large plant response rating ([8]; Postemergence, 500 g ai/ha): 100
Plant response rating, Crabgrass, Large [8, 17]: 100
Plant response rating, Crabgrass, Large [8, 18]: 100
Plant response rating, Morningglory [9, 16]: 100
Morningglory plant response rating ([9]; Postemergence, 500 g ai/ha): 100
Plant response rating, Morningglory [9, 17]: 80
Plant response rating, Morningglory [9, 18]: 90
Plant response rating, Barnyardgrass [10, 16]: 90
Barnyardgrass plant response rating ([10]; Postemergence, 500 g ai/ha): 100
Plant response rating, Barnyardgrass [10, 17]: 90
Plant response rating, Barnyardgrass [10, 18]: 100
Plant response rating, Wheat [11, 16]: 50
Wheat plant response rating ([11]; Postemergence, 500 g ai/ha): 80
Plant response rating, Wheat [11, 17]: 10
Plant response rating, Wheat [11, 18]: 40

— US8952024B2, “Herbicidal pyrimidone derivatives” (E I du Pont de Nemours and Company, priority 2009, dated 2015)
